# What was measured:
# [1] = DPPH radical-scavenging assay; settings: compounds assayed at 100 µM, DPPH 70 µM, 90 min; no = no activity
# Method: The assay was performed as previously described by incubating compounds at a concentration of 100 µM in the presence of 2,2-diphenyl-1-picrylhydrazyl radical (DPPH, 70 µM) in methanol for 90 min, protected from sun light. The absorbance at 517 nm was then determined using a Synergy™ H4 microplate reader (BioTek Instruments, Inc., Winooski, VT, USA). The experiments were performed in triplicate, and the blank (compound without DPPH) was substracted. The percentage of DPPH free radicals was calculated using the equation DPPH free radicals (%) = ((A0 − A1)/A0) × 100, where A0 is the absorbance of MeOH and A1 is the absorbance of the compound. Trolox and resveratrol were used as positive controls.
# [2] = Competition of the tested compounds with DMSO for hydroxyl radicals; settings: compounds assayed at 100 µM; n.a. = not active; no = no activity
# [3] = Inhibition of linoleic acid peroxidation (ILPO) induced by AAPH; settings: compounds assayed at 100 µM; n.a. = not active
# [4] = ABTS+ decolorization assay in ethanolic solution; settings: compounds assayed at 100 µM; n.a. = not active
# soybean lipoxygenase = biological target: T1, soybean lipoxygenase (Glycine max, UniProt P08170); experiment: In vitro inhibition of soybean LOX; format: biochemical; settings: for IC50: soybean LOX, sodium linoleate 0.1 mM
# T1 construct: purchased Aldrich Chemical Co. Milwaukee, WI, (USA)
# T1 sequence (P08170 1-839): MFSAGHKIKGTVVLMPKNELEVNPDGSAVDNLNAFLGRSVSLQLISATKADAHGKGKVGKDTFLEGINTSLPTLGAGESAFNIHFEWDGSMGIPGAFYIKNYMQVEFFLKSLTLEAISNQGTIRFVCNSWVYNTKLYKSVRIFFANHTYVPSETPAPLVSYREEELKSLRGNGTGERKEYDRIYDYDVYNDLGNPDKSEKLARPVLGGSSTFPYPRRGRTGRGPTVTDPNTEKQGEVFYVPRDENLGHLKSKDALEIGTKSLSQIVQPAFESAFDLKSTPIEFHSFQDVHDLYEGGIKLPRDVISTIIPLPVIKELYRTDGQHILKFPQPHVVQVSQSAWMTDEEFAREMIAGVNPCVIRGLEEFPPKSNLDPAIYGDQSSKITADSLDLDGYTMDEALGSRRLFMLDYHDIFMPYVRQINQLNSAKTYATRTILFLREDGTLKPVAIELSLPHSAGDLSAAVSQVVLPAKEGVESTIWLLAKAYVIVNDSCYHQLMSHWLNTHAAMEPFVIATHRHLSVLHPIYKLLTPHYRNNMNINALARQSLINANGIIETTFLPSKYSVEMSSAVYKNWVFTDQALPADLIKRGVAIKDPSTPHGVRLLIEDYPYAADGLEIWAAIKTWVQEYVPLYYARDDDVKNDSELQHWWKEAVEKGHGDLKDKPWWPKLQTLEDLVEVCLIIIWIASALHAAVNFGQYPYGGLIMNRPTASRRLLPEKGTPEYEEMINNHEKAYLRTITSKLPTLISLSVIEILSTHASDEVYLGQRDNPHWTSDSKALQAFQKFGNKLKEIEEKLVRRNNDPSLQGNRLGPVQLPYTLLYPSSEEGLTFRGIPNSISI
# Method: The in vitro study was performed as previously described. The compounds were incubated at room temperature with sodium linoleate (0.1 mM) and 0.2 mL of soybean lipoxygenase solution (1/9 × 10^–4 w/v in phosphate buffer saline). The method was based on the conversion of sodium linoleate to 13-hydroperoxylinoleic acid, which was detected by measuring absorbance at 234 nm. […] To determine the IC50 values, serial dilutions of compounds were used. Blank determination served as a negative control.
# Aβ1–42 = biological target: T2, Aβ1–42 (Homo sapiens, UniProt P05067); experiment: Inhibition of Aβ1–42 aggregation, Thioflavin-T assay; format: biochemical; settings: 10 µM compound and 1.5 µM Aβ1–42, ThT assay
# T2 construct: HFIP-pretreated Aβ1–42 peptide Merck Millipore, Darmstadt, Germany; purchased Merck Millipore, Darmstadt, Germany
# T2 sequence (P05067 672-713): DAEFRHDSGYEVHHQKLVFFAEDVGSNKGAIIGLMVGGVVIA
# Method: Thioflavin-T (ThT) assay was performed to investigate the effect of the compounds on the aggregation of Aβ1–42 (HFIP-pretreated Aβ1–42 peptide Merck Millipore, Darmstadt, Germany). Prior to the incubations, 1 mM Aβ1–42 peptide stock solution in DMSO was diluted in 150 mM HEPES buffer (pH = 7.4, 150 mM NaCl) to obtain a concentration of 7.5 μM. Subsequently, 20 µL of Aβ1–42 ([…]) was mixed with the compounds (10 µM, final concentration) on black-walled 96-well plates and diluted with ThT solution (14.3 μM stock solution in HEPES-buffered solution; 10 μM final concentration). The final volume of the mixture was 100 μL, and the DMSO concentration was always 3% (v/v). Each sample was prepared in four technical replicates. ThT fluorescence (λex = 440 nm, λem = 490 nm) was measured using a microplate reader (Synergy™ H4, BioTek Instruments, Inc., Winooski, VT, USA) for 36–48 h. Inhibition of Aβ1–42 aggregation was expressed as the percent inhibition (% inh = (1 − Fi/F0) × 100), where Fi is the increase in fluorescence of compound-treated Aβ1–42, and F0 is the increase in fluorescence of non-treated Aβ1–42.
# [5] = system: SH-SY5Y neuroblastoma cells; experiment: Neuroprotection against okadaic acid, MTT cell viability; format: cell-based; settings: okadaic acid 20 nM for 20 h, compounds 0.3–10 µM
# [6] = compounds assayed at 100 µM, n.a. = not active, no = no activity under the experimental conditions
SMILES,DPPH [1],OH Scav. Capacity (%) [2],ILPO (%) [3],ABTS+ (%) [4],inhibition at 100 µM (soybean lipoxygenase; [6]),LOX Inhibition (%) (soybean lipoxygenase; [6]),IC50 (soybean lipoxygenase),inhibition at 10 µM (Aβ1–42),neuroprotective effect (augmented OA-reduced cell viability) [5]
"CC(C)(C)/[N+]([O-])=C/c1ccc(OCCCN2CCCCC2)cc1 [nitrone 2, (Z)-N-tert-Butyl-1-(4-(3-(piperidin-1-yl)propoxy)phenyl)methanimine oxide]",0,54%,,,,,,,
"CC(C)(C)/[N+]([O-])=C/c1cccc(OCCCN2CCCCC2)c1 [nitrone 4, (Z)-N-tert-Butyl-1-(3-(3-(piperidin-1-yl)propoxy)phenyl)methanimine oxide]",0,54%,45%,23%,37%,,,,
"C#CCN1CCN(CCCOc2cccc(/C=[N+](\[O-])C(C)(C)C)c2)CC1 [nitrone 10, (Z)-N-tert-Butyl-1-(3-(3-(4-(prop-2-yn-1-yl)piperazin-1-yl)propoxy)phenyl) methanimine oxide]",0,20%,31%,13%,,no,,,
"[O-]/[N+](=C\c1cccc(OCCCN2CCCCC2)c1)Cc1ccccc1 [nitrone 3, (Z)-N-Benzyl-1-(3-(3-(piperidin-1-yl)propoxy)phenyl)methanimine oxide]",2,,29%,31%,,,,,
"CC(C)(C)/[N+]([O-])=C/c1ccccc1OCCCN1CCCCC1 [nitrone 6, (Z)-N-tert-Butyl-1-(2-(3-(piperidin-1-yl)propoxy)phenyl)methanimine oxide]",0,13%,,,39%,,,,
"C#CCN1CCN(CCCOc2cccc(/C=[N+](/[O-])Cc3ccccc3)c2)CC1 [nitrone 9, (E)-N-Benzyl-1-(3-(3-(4-(prop-2-yn-1-yl)piperazin-1-yl)propoxy)phenyl)methanimine oxide]",1,81%,,,,,100 µM,,
"[O-]/[N+](=C\c1ccccc1OCCCN1CCCCC1)Cc1ccccc1 [nitrone 5, (Z)-N-Benzyl-1-(2-(3-(piperidin-1-yl)propoxy)phenyl)methanimine oxide]",0,9%,,19%,,,10 µM,,
"C#CCN1CCN(CCCOc2ccccc2/C=[N+](\[O-])C(C)(C)C)CC1 [nitrone 12, (Z)-N-tert-Butyl-1-(2-(3-(4-(prop-2-yn-1-yl)piperazin-1-yl)propoxy)phenyl) methanimine oxide]",,9.8%,31%,13%,25%,,,,
"Cc1c(C)c2c(c(C)c1O)CCC(C)(C(=O)O)O2 (centres unmarked) [Trolox, reference compound]",,88%,93%,91%,,,,,
"CC(C)(C)/[N+]([O-])=C/c1ccccc1 [PBN, α-phenyl-N-tert-butylnitrone, reference compound]",no,no,11%,5%,23%,,,,
"[O-]/[N+](=C\c1ccc(OCCCN2CCCCC2)cc1)Cc1ccccc1 [nitrone 1, (Z)-N-Benzyl-1-(4-(3-(piperidin-1-yl)propoxy)phenyl)methanimine oxide]",0,7%,,27%,,,60 µM,42.2 ± 5.7%,statistically significant at 10 µM
"C#CCN1CCN(CCCOc2ccc(/C=[N+](\[O-])Cc3ccccc3)cc2)CC1 [nitrone 7, (Z)-N-Benzyl-1-(4-(3-(4-(prop-2-yn-1-yl)piperazin-1-yl)propoxy)phenyl) methanimine oxide]",0,,,28%,27.2%,,,,
"C#CCN1CCN(CCCOc2ccc(/C=[N+](\[O-])C(C)(C)C)cc2)CC1 [nitrone 8, (Z)-N-tert-Butyl-1-(4-(3-(4-(prop-2-yn-1-yl)piperazin-1-yl)propoxy)phenyl) methanimine oxide]",0,78%,,10%,23.3%,,,,

# From PMC9495348, “Polyfunctionalized α-Phenyl-tert-butyl(benzyl)nitrones: Multifunctional Antioxidants for Stroke Treatment” (Antioxidants, 2022)
